Data taken from US5140014A (Abbott Laboratories, priority 1989, dated 1992).
≈ marks a conversion by molar mass, not a printed value. Like-named read-outs stand apart in the source and are kept apart here.

Assays:
Test in all cases: in vitro antibacterial activity, agar dilution method (MIC)
Format in all cases: cell-based
[1] = test system: Escherichia Coli; conditions: Escherichia coli, BHI agar, 20-24 hours, read-out: MIC
Description: (§1) Compounds 1 to 8 were evaluated for antibacterial activity by the agar dilution method to determine the degree of in vitro susceptibility of aerobic microorganisms to antimicrobial agents. The test medium was Brain Heart Infusion (BHI) agar. The antibacterial agent was dissolved at a concentration of 2,000 ug/mL. Test plates were then prepared, usually 12 two-fold dilutions. After adding the sample to the plates, 10 mL of cooled BHI agar medium was added to each plate. The organisms were grown overnight in BHI broth (Difco) in a 35°-37° C. incubator.
(§2) On the day of testing, the bacterial suspensions were diluted 1:100 in sterile distilled water, except for a few slow-growing organisms (usually Micrococcus and Streptococcus) which were diluted 1:10. The plate was then inoculated with approximately 10^4 organisms. This was incubated in a 35°-37° C. incubator for 20-24 hours. Thereafter, the plates were read to determine the minimum inhibitory concentration (MIC) defined as the lowest concentration of drug yielding no growth on the plate, a slight haze, or sparsely isolated colonies on the inoculum spot as compared to the growth control.

[2] = test system: Pseudomonas Cepacia; conditions: Burkholderia cepacia; strain 296I; BHI agar, 20-24 hours; read-out: MIC
Description: as §1, §2

[3] = test system: Staphylococcus Aureus; conditions: Staphylococcus aureus
Description: (§3) The test medium was Brain Heart Infusion (BHI) agar. The antibacterial agent was dissolved at a concentration of 2,000 ug/mL. Test plates were then prepared, usually 12 two-fold dilutions. After adding the sample to the plates, 10 mL of cooled BHI agar medium was added to each plate. The organisms were grown overnight in BHI broth (Difco) in a 35°-37° C. incubator.
as §2

[4] = test system: Enterobacter Aerogenes; conditions: Klebsiella aerogenes, ATCC13048, strain ATCC 13048; BHI agar, 20-24 hours; read-out: MIC
Description: as §3, §2

[5] = test system: Streptococcus Bovis; conditions: Streptococcus equinus, strain A5169; BHI agar, 20-24 hours
Description: as §3, §2

[6] = test system: Streptococcus Agalactiae; conditions: Streptococcus agalactiae, strain CMX 508; BHI agar, 20-24 hours; read-out: MIC
Description: as §3, §2

[7] = test system: Acinetobacter Sp; conditions: Acinetobacter, strain CMX 669; BHI agar, 20-24 hours; read-out: MIC
Description: as §3, §2

[8] = test system: Streptococcus Pyogenes; conditions: Streptococcus pyogenes
Description: as §3, §2

[9] = test system: Enterococcus Faecium; conditions: Enterococcus faecium, ATCC8043, strain ATCC 8043; BHI agar, 20-24 hours; read-out: MIC
Description: as §3, §2

[10] = test system: Micrococcus Luteus; conditions: Micrococcus luteus
Description: as §3, §2

[11] = test system: Klebsiella Pneumoniae; conditions: Klebsiella pneumoniae, ATCC8045, strain ATCC 8045; BHI agar, 20-24 hours; read-out: MIC
Description: as §3, §2

[12] = test system: Staphylococcus Epidermidis; conditions: Staphylococcus epidermidis, strain 3519; BHI agar, 20-24 hours; read-out: MIC
Description: as §3, §2

[13] = test system: Haemophilus Influenzae; conditions: Haemophilus influenzae, BHI agar, 20-24 hours
Description: as §3, §2

[14] = test system: Pseudomonas Aeruginosa; conditions: Pseudomonas aeruginosa, BHI agar, 20-24 hours, read-out: MIC
Description: as §3, §2

[15] = test system: Providencia Stuartii; conditions: Providencia stuartii; strain CMX 640; BHI agar, 20-24 hours; read-out: MIC
Description: as §3, §2

[16] = NCTC10649, strain NCTC 10649, BHI agar, 20-24 hours, read-out: MIC
[17] = strain 45, BHI agar, 20-24 hours, read-out: MIC
[18] = strain 45 RAR2, BHI agar, 20-24 hours, read-out: MIC
[19] = strain 642A, BHI agar, 20-24 hours, read-out: MIC
[20] = strain A5177, BHI agar, 20-24 hours, read-out: MIC
[21] = strain CMX 553, BHI agar, 20-24 hours, read-out: MIC
[22] = strain 930 CONST, BHI agar, 20-24 hours, read-out: MIC
[23] = strain 2548 INDUC, BHI agar, 20-24 hours, read-out: MIC
[24] = ATCC4698, strain ATCC 4698, BHI agar, 20-24 hours, read-out: MIC
[25] = ATCC43095, strain ATCC 43095, read-out: MIC

Structure (SMILES): CCC1OC(=O)CC(O)C(C)C(OC2OC(C)CC(N(C)C)C2O)C(CC=O)CC(C)C(N(C)C)C=CC2(C)OC2C1C (stereo not shown) [Example 1, [9R]-9-Deoxo-9-N,N-dimethylamino-rosaramicin]
- MIC ([1]; strain DC-2): 3.1 µg/mL (≈ 5.08 µM)
- MIC ([1]; strain H560): 0.78 µg/mL (≈ 1.28 µM)
- MIC ([1]; strain JUHL): 6.2 µg/mL (≈ 10.2 µM)
- MIC ([1]; strain KNK 437): 6.2 µg/mL (≈ 10.2 µM)
- MIC ([1]; strain SS): 0.1 µg/mL (≈ 0.164 µM)
- MIC [2]: 100 µg/mL (≈ 164 µM)
- MIC ([3]; ATCC6538P): 0.78 µg/mL (≈ 1.28 µM)
- MIC [3, 16]: 0.78 µg/mL (≈ 1.28 µM)
- MIC [3, 17]: 0.78 µg/mL (≈ 1.28 µM)
- MIC [3, 18]: 0.78 µg/mL (≈ 1.28 µM)
- MIC [3, 19]: 0.78 µg/mL (≈ 1.28 µM)
- MIC [3, 20]: 1.56 µg/mL (≈ 2.55 µM)
- MIC [3, 21]: 0.78 µg/mL (≈ 1.28 µM)
- MIC [4]: 6.2 µg/mL (≈ 10.2 µM)
- MIC [5]: 0.05 µg/mL (≈ 0.0819 µM)
- MIC [6]: 0.1 µg/mL (≈ 0.164 µM)
- MIC [7]: 1.56 µg/mL (≈ 2.55 µM)
- MIC [8]: 0.05 µg/mL (≈ 0.0819 µM)
- MIC [8, 22]: > 100 µg/mL
- MIC [8, 23]: 0.39 µg/mL (≈ 0.638 µM)
- MIC [9]: 0.39 µg/mL (≈ 0.638 µM)
- MIC [10, 24]: 0.2 µg/mL (≈ 0.327 µM)
- MIC ([10]; ATCC9341): 0.1 µg/mL (≈ 0.164 µM)
- MIC [11]: 12.5 µg/mL (≈ 20.5 µM)
- MIC [12]: 0.78 µg/mL (≈ 1.28 µM)
- MIC ([13]; ATCC9795, strain ATCC 9795): 1 µg/mL (≈ 1.64 µM)
- MIC ([13]; ATCC10211, strain ATCC 10211): 1 µg/mL (≈ 1.64 µM)
- MIC ([13]; ATCC19418, strain ATCC 19418): 1 µg/mL (≈ 1.64 µM)
- MIC [13, 25]: 0.25 µg/mL (≈ 0.409 µM)
- MIC ([13]; strain 503B): 1 µg/mL (≈ 1.64 µM)
- MIC ([13]; strain 504): 1 µg/mL (≈ 1.64 µM)
- MIC ([13]; strain 519A, read-out: MIC): 0.5 µg/mL (≈ 0.819 µM)
- MIC ([13]; strain 566A, read-out: MIC): 2 µg/mL (≈ 3.27 µM)
- MIC ([13]; strain 588A): 1 µg/mL (≈ 1.64 µM)
- MIC ([13]; strain 632A): 1 µg/mL (≈ 1.64 µM)
- MIC ([13]; strain 667A): 1 µg/mL (≈ 1.64 µM)
- MIC ([13]; strain 747C): 1 µg/mL (≈ 1.64 µM)
- MIC ([13]; strain 751, read-out: MIC): 2 µg/mL (≈ 3.27 µM)
- MIC ([13]; strain 1177, read-out: MIC): 0.06 µg/mL (≈ 0.0982 µM)
- MIC ([13]; strain 1435, read-out: MIC): 0.5 µg/mL (≈ 0.819 µM)
- MIC ([13]; strain DILL AMP R): 1 µg/mL (≈ 1.64 µM)
- MIC ([13]; strain SOL AMP R): 1 µg/mL (≈ 1.64 µM)
- MIC ([13]; strain SPK AMP R): 1 µg/mL (≈ 1.64 µM)
- MIC ([14]; strain A5007): > 100 µg/mL
- MIC ([14]; strain BMH10): 50 µg/mL (≈ 81.9 µM)
- MIC ([14]; strain K799/61): 0.78 µg/mL (≈ 1.28 µM)
- MIC ([14]; strain K799/WT): 50 µg/mL (≈ 81.9 µM)
- MIC [15]: > 100 µg/mL

Structure (SMILES): CC[C@H]1OC(=O)C[C@@H](O)[C@H](C)[C@@H](O[C@@H]2O[C@H](C)C[C@H](N(C)C)[C@H]2O)[C@@H](CC=O)C[C@@H](C)C(=O)/C=C/[C@]2(C)O[C@H]2[C@@H]1C [Rosaramicin, 5-O-(4'-deoxy-mycaminosyl)-12,13-epoxy-23-deoxy-tylonide, reference compound]
- MIC ([1]; strain DC-2): 12.5 µg/mL (≈ 21.5 µM)
- MIC ([1]; strain H560): 6.2 µg/mL (≈ 10.7 µM)
- MIC ([1]; strain JUHL): 12.5 µg/mL (≈ 21.5 µM)
- MIC ([1]; strain KNK 437): 25 µg/mL (≈ 43 µM)
- MIC ([1]; strain SS): 0.2 µg/mL (≈ 0.344 µM)
- MIC [2]: 25 µg/mL (≈ 43 µM)
- MIC ([3]; ATCC6538P): 0.39 µg/mL (≈ 0.67 µM)
- MIC [3, 16]: 0.39 µg/mL (≈ 0.67 µM)
- MIC [3, 17]: 0.39 µg/mL (≈ 0.67 µM)
- MIC [3, 18]: 0.39 µg/mL (≈ 0.67 µM)
- MIC [3, 19]: 0.39 µg/mL (≈ 0.67 µM)
- MIC [3, 20]: 0.78 µg/mL (≈ 1.34 µM)
- MIC [3, 21]: 0.39 µg/mL (≈ 0.67 µM)
- MIC [4]: 25 µg/mL (≈ 43 µM)
- MIC [6]: 0.2 µg/mL (≈ 0.344 µM)
- MIC [7]: 12.5 µg/mL (≈ 21.5 µM)
- MIC [8, 22]: > 100 µg/mL
- MIC [8, 23]: 0.39 µg/mL (≈ 0.67 µM)
- MIC ([8]; strain EES61, BHI agar, 20-24 hours, read-out: MIC): 0.1 µg/mL (≈ 0.172 µM)
- MIC [9]: 0.39 µg/mL (≈ 0.67 µM)
- MIC [10, 24]: 0.1 µg/mL (≈ 0.172 µM)
- MIC [11]: 12.5 µg/mL (≈ 21.5 µM)
- MIC [12]: 0.39 µg/mL (≈ 0.67 µM)
- MIC ([13]; ATCC9795, strain ATCC 9795): 1 µg/mL (≈ 1.72 µM)
- MIC ([13]; ATCC10211, strain ATCC 10211, read-out: MIC): 0.5 µg/mL (≈ 0.859 µM)
- MIC ([13]; ATCC19418, strain ATCC 19418): 1 µg/mL (≈ 1.72 µM)
- MIC [13, 25]: 0.5 µg/mL (≈ 0.859 µM)
- MIC ([13]; strain 503B): 1 µg/mL (≈ 1.72 µM)
- MIC ([13]; strain 504): 1 µg/mL (≈ 1.72 µM)
- MIC ([13]; strain 519A, read-out: MIC): 0.5 µg/mL (≈ 0.859 µM)
- MIC ([13]; strain 566A): 1 µg/mL (≈ 1.72 µM)
- MIC ([13]; strain 588A, read-out: MIC): 0.5 µg/mL (≈ 0.859 µM)
- MIC ([13]; strain 632A): 1 µg/mL (≈ 1.72 µM)
- MIC ([13]; strain 667A): 1 µg/mL (≈ 1.72 µM)
- MIC ([13]; strain 747C, read-out: MIC): 0.5 µg/mL (≈ 0.859 µM)
- MIC ([13]; strain 751): 1 µg/mL (≈ 1.72 µM)
- MIC ([13]; strain 1177, read-out: MIC): 0.12 µg/mL (≈ 0.206 µM)
- MIC ([13]; strain 1435, read-out: MIC): 0.5 µg/mL (≈ 0.859 µM)
- MIC ([13]; strain DILL AMP R, read-out: MIC): 0.5 µg/mL (≈ 0.859 µM)
- MIC ([13]; strain SOL AMP R, read-out: MIC): 0.5 µg/mL (≈ 0.859 µM)
- MIC ([13]; strain SPK AMP R, read-out: MIC): 0.5 µg/mL (≈ 0.859 µM)
- MIC ([14]; strain A5007): 100 µg/mL (≈ 172 µM)
- MIC ([14]; strain BMH10): 50 µg/mL (≈ 85.9 µM)
- MIC ([14]; strain K799/61): 0.78 µg/mL (≈ 1.34 µM)
- MIC ([14]; strain K799/WT): 25 µg/mL (≈ 43 µM)
- MIC [15]: 100 µg/mL (≈ 172 µM)
